{"source": "patent US9610235B2", "about": "“Methods and compositions to improve mechanical resistance of teeth” (THEOCORP HOLDING CO., LLC, priority 2010, dated 2017)", "key": {"[1]": {"assay": "Scratched human teeth, SEM comparison of theobromine and NaF", "settings": "90 minutes incubation; NaF 0.25%, theobromine 200 mg/L", "protocol": "(§1) Isolated human teeth were scratched with a diamond scribe on the enamel surface. Each tooth was then etched for 15 seconds in 0.1 M HCl, rinsed with distilled water, then exposed for 15 seconds to a 0.1 M oxalic acid solution, and then rinsed once more with distilled water. […] The pH was adjusted to 7.4-7.6, after which a 0.2 M CaCl2 solution was added with stirring (the solution turns immediately turbid from Ca-phosphate precipitation). The pH was checked and adjusted immediately to between 7.4 and 7.6, as required. […] A volume ratio of about 3:5 Na2HPO4 solution-to-CaCl2 solution was used to avoid any excess of either Ca or P. The teeth were so incubated at room temperature for about 90 minutes, after which they were removed from solution, carefully rinsed several times with distilled water, and then dried in a desiccator for 24 hours. After drying, the teeth were carbon-coated for viewing via scanning electron microscopy (SEM)."}, "[2]": {"settings": "deposition in drilled holes; NaF 0.25%, theobromine 200 mg/L", "protocol": "as §1\nUsing a dental drill, holes were drilled into the enamel surfaces of isolated human teeth, with each tooth receiving three holes in three separate locations. […] The teeth were visualized via SEM, as in EXAMPLE 4, and the amount of calcium phosphate deposition measured for each experimental condition."}}, "data": [{"molecule": "[F-].[Na+]", "note": "[NaF, sodium fluoride]", "values": [{"measurement": "appearance of diamond-scribe scratch in SEM", "setting": "[1]", "result": "partly-filled"}, {"measurement": "Calcium Phosphate (μm) ± S.D.", "setting": "[2]", "result": "70 ± 8.8", "unit": "μm"}]}]}
